# How the values were obtained:
# lipoamide = compound: NC(=O)CCCCC1CCSS1 [lipoamide]; test: thermal stability z-score vs DMSO; higher = more thermally stabilized by treatment; conditions: HeLa, lipoamide concentration 100 µM
# Method: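 Cellular thermal proteome profiling in HeLa cells. Cells were treated with 100 µM lipoamide for 1 h, with or without 1 mM arsenate for a further 1 h, then heated to ten temperatures (37-66.3 °C), and soluble protein was quantified by TMT mass spectrometry relative to 0.1% DMSO controls. The thermal stability score (sum of log2 fold changes minus the abundance score) was transformed to a z-score; mean of n = 3 experiments.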
# potassium arsenate = compound: O=[As]([O-])(O)O.[K+] [potassium arsenate]; test: as above; conditions: HeLa; arsenate concentration 1 mM
# Method: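 Cellular thermal proteome profiling in HeLa cells treated with 1 mM arsenate for 1 h (DMSO pretreatment), heated to ten temperatures (37-66.3 °C). Soluble protein was quantified by TMT mass spectrometry relative to DMSO controls; the thermal stability score was transformed to a z-score; mean of n = 3 experiments.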
# [1] = arsenate co-treatment: 1 mM arsenate 1 h
# 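Also: each temperature applied for 3 min, abundance score taken as mean log2 fold change at the two lowest temperatures, z-score obtained by mean subtraction and division by SD.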
# Sequence of UniProt Q96RT7 (Q96RT7 whole entry): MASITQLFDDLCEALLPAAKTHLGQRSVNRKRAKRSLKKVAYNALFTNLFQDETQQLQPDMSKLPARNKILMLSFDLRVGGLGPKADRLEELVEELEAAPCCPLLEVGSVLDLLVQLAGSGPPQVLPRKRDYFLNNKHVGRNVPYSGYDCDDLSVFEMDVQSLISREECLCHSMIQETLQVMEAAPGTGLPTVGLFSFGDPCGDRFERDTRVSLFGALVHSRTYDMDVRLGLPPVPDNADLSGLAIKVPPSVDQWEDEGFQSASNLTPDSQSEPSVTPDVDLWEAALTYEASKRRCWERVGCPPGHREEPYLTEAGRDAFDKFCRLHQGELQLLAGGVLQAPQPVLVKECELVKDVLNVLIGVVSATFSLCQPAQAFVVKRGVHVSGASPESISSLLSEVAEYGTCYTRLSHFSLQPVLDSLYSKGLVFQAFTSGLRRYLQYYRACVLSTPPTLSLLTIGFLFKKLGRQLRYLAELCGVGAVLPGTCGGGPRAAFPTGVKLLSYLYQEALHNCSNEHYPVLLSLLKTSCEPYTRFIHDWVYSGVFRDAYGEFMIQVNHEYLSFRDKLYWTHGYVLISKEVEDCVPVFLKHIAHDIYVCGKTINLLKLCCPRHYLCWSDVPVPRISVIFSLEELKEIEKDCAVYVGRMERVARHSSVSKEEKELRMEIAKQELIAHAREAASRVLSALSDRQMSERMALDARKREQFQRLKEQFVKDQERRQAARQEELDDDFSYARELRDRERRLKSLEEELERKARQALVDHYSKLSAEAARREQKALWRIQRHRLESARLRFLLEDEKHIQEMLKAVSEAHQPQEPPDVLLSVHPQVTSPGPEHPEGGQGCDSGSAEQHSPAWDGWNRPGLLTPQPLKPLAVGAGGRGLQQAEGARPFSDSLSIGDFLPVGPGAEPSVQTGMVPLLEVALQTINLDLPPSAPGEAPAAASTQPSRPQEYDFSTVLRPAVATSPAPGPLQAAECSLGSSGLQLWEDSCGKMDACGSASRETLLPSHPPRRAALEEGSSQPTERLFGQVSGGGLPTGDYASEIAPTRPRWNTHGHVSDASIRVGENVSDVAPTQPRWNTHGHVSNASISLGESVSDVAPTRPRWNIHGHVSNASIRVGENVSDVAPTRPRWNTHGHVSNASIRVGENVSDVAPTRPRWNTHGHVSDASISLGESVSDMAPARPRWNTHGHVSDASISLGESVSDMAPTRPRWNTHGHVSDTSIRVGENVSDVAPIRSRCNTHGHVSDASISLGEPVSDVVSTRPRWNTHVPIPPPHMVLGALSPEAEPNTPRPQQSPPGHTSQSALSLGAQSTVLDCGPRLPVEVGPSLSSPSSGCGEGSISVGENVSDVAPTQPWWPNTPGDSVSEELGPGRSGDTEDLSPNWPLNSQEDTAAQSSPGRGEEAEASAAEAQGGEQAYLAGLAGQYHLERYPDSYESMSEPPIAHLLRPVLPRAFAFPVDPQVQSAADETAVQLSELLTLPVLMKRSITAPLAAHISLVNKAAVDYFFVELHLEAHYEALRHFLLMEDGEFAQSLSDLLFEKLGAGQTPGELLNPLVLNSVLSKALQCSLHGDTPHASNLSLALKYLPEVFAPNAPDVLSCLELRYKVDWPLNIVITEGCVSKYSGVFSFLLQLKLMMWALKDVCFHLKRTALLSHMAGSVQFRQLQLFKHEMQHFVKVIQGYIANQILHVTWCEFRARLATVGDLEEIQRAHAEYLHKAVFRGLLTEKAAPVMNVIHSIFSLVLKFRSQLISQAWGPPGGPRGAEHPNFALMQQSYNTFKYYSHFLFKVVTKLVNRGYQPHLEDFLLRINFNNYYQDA
# Sequence of UniProt P06213 (P06213 whole entry): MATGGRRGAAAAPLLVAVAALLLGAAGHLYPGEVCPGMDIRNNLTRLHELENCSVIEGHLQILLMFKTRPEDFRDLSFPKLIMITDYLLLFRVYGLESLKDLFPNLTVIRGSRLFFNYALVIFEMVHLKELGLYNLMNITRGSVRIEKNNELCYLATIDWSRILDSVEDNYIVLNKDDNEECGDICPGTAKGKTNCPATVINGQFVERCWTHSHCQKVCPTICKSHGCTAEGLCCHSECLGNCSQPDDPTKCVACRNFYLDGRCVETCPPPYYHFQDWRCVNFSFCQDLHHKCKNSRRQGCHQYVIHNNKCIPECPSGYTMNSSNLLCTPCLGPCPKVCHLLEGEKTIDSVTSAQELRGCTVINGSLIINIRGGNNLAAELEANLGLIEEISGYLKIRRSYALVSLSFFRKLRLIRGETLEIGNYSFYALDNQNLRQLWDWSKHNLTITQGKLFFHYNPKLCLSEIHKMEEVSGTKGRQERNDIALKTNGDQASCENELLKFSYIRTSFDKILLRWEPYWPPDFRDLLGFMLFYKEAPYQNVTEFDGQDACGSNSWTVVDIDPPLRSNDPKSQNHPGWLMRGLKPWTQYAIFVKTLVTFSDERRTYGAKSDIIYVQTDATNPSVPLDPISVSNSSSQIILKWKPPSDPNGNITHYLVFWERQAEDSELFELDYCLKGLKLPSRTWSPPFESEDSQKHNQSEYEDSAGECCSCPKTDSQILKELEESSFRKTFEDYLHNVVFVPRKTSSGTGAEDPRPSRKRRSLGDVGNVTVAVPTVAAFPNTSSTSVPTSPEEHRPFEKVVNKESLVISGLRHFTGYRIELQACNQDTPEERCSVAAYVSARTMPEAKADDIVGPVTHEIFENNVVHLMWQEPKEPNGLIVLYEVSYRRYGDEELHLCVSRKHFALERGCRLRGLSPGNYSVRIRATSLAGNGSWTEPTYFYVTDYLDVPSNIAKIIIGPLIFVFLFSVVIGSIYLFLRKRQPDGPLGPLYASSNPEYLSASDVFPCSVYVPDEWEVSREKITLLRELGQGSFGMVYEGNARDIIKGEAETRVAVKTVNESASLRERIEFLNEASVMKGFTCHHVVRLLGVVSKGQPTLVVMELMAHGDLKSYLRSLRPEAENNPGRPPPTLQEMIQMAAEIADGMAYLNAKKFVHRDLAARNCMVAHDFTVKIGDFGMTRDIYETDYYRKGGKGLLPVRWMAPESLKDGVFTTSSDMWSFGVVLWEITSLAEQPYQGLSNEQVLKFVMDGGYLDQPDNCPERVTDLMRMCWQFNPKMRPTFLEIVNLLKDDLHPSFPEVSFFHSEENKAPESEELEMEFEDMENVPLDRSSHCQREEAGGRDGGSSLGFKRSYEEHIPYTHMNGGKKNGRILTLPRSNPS
# Sequence of UniProt Q13630 (Q13630 whole entry): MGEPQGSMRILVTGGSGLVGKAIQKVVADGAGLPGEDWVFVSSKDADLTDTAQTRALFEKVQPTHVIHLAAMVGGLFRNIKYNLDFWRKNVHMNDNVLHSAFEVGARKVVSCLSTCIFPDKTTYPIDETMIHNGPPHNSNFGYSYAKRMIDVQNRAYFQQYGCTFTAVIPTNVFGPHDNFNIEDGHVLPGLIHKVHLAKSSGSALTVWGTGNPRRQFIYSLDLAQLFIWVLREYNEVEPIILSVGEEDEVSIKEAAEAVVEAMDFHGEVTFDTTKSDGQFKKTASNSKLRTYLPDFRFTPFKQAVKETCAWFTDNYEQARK
# Sequence of UniProt Q8N0V5 (Q8N0V5 whole entry): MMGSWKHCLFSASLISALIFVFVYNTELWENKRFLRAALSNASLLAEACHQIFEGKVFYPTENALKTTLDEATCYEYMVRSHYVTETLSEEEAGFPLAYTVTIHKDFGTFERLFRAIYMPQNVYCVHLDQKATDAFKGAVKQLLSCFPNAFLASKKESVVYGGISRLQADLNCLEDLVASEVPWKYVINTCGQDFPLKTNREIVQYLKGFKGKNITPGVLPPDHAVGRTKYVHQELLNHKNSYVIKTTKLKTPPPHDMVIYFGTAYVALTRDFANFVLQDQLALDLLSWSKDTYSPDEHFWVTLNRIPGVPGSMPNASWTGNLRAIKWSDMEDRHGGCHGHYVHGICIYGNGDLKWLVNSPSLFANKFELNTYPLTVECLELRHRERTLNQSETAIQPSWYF
# Sequence of UniProt Q8TF40 (Q8TF40 whole entry): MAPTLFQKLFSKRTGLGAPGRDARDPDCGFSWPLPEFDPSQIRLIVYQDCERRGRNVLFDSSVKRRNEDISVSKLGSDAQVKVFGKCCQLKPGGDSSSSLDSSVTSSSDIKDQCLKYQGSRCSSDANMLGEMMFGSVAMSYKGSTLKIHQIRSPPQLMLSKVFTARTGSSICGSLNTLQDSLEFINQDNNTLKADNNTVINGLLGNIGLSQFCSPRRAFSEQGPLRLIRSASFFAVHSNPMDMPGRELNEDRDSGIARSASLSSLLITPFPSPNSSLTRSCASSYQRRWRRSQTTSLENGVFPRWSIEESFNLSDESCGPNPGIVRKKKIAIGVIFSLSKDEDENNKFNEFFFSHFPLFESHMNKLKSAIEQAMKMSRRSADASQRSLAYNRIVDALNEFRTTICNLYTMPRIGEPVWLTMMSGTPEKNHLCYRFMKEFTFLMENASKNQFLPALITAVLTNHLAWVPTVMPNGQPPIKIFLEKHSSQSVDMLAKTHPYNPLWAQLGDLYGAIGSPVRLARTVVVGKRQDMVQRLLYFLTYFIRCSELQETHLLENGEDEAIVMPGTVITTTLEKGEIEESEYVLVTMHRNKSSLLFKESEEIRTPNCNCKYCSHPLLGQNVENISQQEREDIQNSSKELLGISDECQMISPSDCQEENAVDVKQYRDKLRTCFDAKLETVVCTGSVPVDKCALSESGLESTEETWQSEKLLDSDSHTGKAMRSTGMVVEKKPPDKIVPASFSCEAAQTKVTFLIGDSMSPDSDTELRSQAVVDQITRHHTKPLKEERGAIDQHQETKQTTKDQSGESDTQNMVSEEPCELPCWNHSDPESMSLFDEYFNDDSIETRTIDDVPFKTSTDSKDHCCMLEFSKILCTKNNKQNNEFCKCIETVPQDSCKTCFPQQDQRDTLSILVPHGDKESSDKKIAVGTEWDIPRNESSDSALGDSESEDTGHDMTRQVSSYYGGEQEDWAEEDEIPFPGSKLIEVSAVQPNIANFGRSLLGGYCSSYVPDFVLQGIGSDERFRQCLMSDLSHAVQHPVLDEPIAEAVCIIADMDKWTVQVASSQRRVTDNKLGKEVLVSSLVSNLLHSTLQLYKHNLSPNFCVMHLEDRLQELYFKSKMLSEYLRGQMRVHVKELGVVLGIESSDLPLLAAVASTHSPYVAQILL
Target,thermal stability z-score (lipoamide; [1]),thermal stability z-score (lipoamide; arsenate co-treatment: none),thermal stability z-score (potassium arsenate)
FBL (UniProt P22087),0.277,-0.112,0.723
PARVB (UniProt Q9HBI1),-0.459,0.319,-0.107
KIAA1524 (UniProt Q8TCG1),-0.00458,-0.0673,0.662
RUVBL1 (UniProt Q9Y265),-0.0828,0.115,-0.662
BCL9 (UniProt O00512),0.363,1.23,0.421
GTF2H1 (UniProt P32780),-0.0618,-0.0128,-0.0702
DDX39B (UniProt Q13838),0.451,0.103,0.941
FGF2 (UniProt P09038),-0.298,0.269,-1.74
SCYL1 (UniProt Q96KG9),-0.269,-0.198,-0.278
INSR (UniProt P06213),0.408,0.683,0.639
RAB43 (UniProt Q86YS6),-0.0743,1.38,1.35
AHCY (UniProt P23526),0.488,0.146,-1.82
CAPZA1 (UniProt P52907),-0.236,0.183,0.38
YWHAG (UniProt P61981),0.0458,-0.0254,-0.403
FARP1 (UniProt Q9Y4F1),-0.118,-1.38,-2.23
PDE6D (UniProt O43924),0.899,0.515,0.912
RAB33B (UniProt Q9H082),0.43,0.463,0.955
MAD2L1 (UniProt Q13257),-0.109,-0.147,1.96
TUBGCP6 (UniProt Q96RT7),0.0893,0.0666,0.0497
FOSL2 (UniProt P15408),1.86,0.702,-2.25
HARS2 (UniProt P49590),-0.108,-0.629,-0.0959
RAB8A (UniProt P61006),0.0143,0.344,0.332
MARC2 (UniProt Q969Z3),0.235,0.311,0.168
MATK (UniProt P42679),-0.101,-0.0941,-0.0451

Target,thermal stability z-score (lipoamide; [1]),thermal stability z-score (lipoamide; arsenate co-treatment: none),thermal stability z-score (potassium arsenate)
TOMM34 (UniProt Q15785),0.52,0.356,-0.0204
SMAD4 (UniProt Q13485),-0.233,-0.519,-0.746
TSTA3 (UniProt Q13630),-0.467,-0.784,-0.387
UGT8 (UniProt Q16880),0.0311,-0.0518,0.235
SELO (UniProt Q9BVL4),-0.214,-0.211,-0.536
RBBP9 (UniProt O75884),0.308,0.162,0.167
EIF3D (UniProt O15371),-0.0633,0.0556,-0.0622
RAP1GDS1 (UniProt P52306),0.161,-0.118,0.353
GCNT2 (UniProt Q8N0V5),0.367,-0.158,-0.125
TNFRSF10A (UniProt O00220),-1.82,-1.91,-1.65
GFM1 (UniProt Q96RP9),-0.469,0.0798,-1.15
SEC63 (UniProt Q9UGP8),-1.11,-0.484,-0.767
OPA3 (UniProt Q9H6K4),1.42,0.732,0.247
DECR2 (UniProt Q9NUI1),1.26,1.15,1.27
DECR1 (UniProt Q16698),-0.133,0.18,-0.0171
TRAPPC8 (UniProt Q9Y2L5),0.257,0.348,0.311
VEZT (UniProt Q9HBM0),-0.758,-0.707,-0.349
SNUPN (UniProt O95149),-0.201,-1.48,-0.43
FAM21C (UniProt Q9Y4E1),0.0661,0.32,0.0902
FKBP14 (UniProt Q9NWM8),-3.79,-2.85,-0.591
ROCK1 (UniProt Q13464),-0.134,0.211,-0.122
PPP1R21 (UniProt Q6ZMI0),-0.328,-0.0718,-0.839
OXCT1 (UniProt P55809),-0.159,-0.108,-1.12
NXF1 (UniProt Q9UBU9),0.0906,0.0765,-0.127

Target,thermal stability z-score (lipoamide; [1]),thermal stability z-score (lipoamide; arsenate co-treatment: none),thermal stability z-score (potassium arsenate)
PPM1H (UniProt Q9ULR3),-1.19,0.00662,-1.01
FRMD8 (UniProt Q9BZ67),0.263,0.131,-0.172
PAN2 (UniProt Q504Q3),0.0953,-0.21,-0.143
LANCL1 (UniProt O43813),0.232,0.164,0.0783
POU2F1 (UniProt P14859),-0.0121,-0.303,0.0127
STAU1 (UniProt O95793),-1.06,-0.199,-0.275
IGF1R (UniProt P08069),0.294,0.324,0.987
PIK3C2A (UniProt O00443),-0.267,0.213,0.167
RBBP5 (UniProt Q15291),1.23,0.518,-0.769
B4GALT4 (UniProt O60513),-0.0137,-0.101,0.252
RAI14 (UniProt Q9P0K7),-0.47,-0.419,-0.554
TMCO3 (UniProt Q6UWJ1),-0.807,-1.31,0.2
ALDOA (UniProt P04075),0.281,0.0525,-0.488
MOB2 (UniProt Q70IA6),-0.235,-0.176,0.0529
RARS (UniProt P54136),-0.341,-0.305,0.39
NFKB1 (UniProt P19838),0.0975,0.14,-0.274
FNIP1 (UniProt Q8TF40),0.272,0.0643,0.000327
KIDINS220 (UniProt Q9ULH0),-0.105,0.516,0.0983
TFDP1 (UniProt Q14186),-0.00506,0.0652,-0.0388
EIF2AK4 (UniProt Q9P2K8),0.566,0.141,2.05
SSR1 (UniProt P43307),-1.49,-0.782,-1.26
PLOD3 (UniProt O60568),-5.29,-4.8,0.333
HYOU1 (UniProt Q9Y4L1),-4.47,-3.4,0.592
